In patent publication US8193213B2, “Spermicidal and/or antifungal composition and methods of using the same” (priority 2003, dated 2012):

Assays:
[1] = tested on: Candida albicans; test: Antifungal susceptibility testing (NCCLS, MIC/MFC) against C. albicans; type: cell-based; parameters: Lowest [Active]: unit not given here; settings: for Lowest MIC / Lowest MFC: C. albicans; for Lowest MIC: lowest concentration that appears to have no growth; for Lowest MFC: lowest concentration that kills >= 98% of the cells in the well
Method: (§1) Antifungal susceptibility testing was performed following the NCCLS guidelines with minor modifications. Briefly, a suspension of Candida albicans cells was prepared from pure cultures grown overnight on yeast-malt extract (YM) agar at 35° C. Several small colonies were removed from a YM agar plate and transferred to 5 ml of 0.85% saline. The cells were suspended by 15 seconds of vortexing and the cell density of the resulting suspension was determined using a spectrophotometer. The cell density was adjusted by addition of 0.85% saline until the transmittance matched that of a 0.5 McFarland standard when measured at a wavelength of 530 nm. An aliquot of this suspension was diluted 1:1000 in RPMI-MOPS to yield a working suspension. A similar suspension of Aspergillus fumigatus spores was obtained by using spores stored at […] in 0.85% saline. These spores were diluted in 0.85% saline to match the McFarland standard transmittance. This suspension was then further diluted 1:50 in RPMI-MOPS to produce the working inoculum suspension.
(§2) Dilution series of the test compounds were made in RPMI-MOPS containing 2% DMSO. An aliquot of each dilution was added in duplicate to the wells of a sterile 96-well, flat bottom microtiter plate. Then, an aliquot of either the C. albicans cell suspension or the A. fumigatus spore suspension were added to each well for a final volume of 200 μl. The plates were then incubated at […]. […] A similar determination was made for the A. fumigatus plates after 48 hours. […] The numbers of colony forming units (CFU) were counted and these values used to calculate the percent survival of cells or spores in inocula relative to the number of CFUs in the working inoculum suspension. The minimum fungicidal concentration (MFC) was the lowest concentration of test compound with a percent survival of less than 2%.

[2] = tested on: Aspergillus fumigatus; test: Antifungal susceptibility testing (NCCLS, MIC/MFC) against A. fumigatus; type: cell-based; parameters: Lowest [Active]: unit not given here; settings: for Lowest MIC / Lowest MFC: A. fumigatus; for Lowest MIC: lowest concentration that appears to have no growth; for Lowest MFC: lowest concentration that kills >= 98% of the cells in the well
Method: as §1, §2

SMILES	Lowest MIC [1] [µg/mL]	Lowest MFC [1] [µg/mL]	Lowest MIC [2] [µg/mL]	Lowest MFC [2] [µg/mL]	CFU for MFC at 300 ([1]; C. albicans (19 hours), concentration 300)	Lowest [Active] ([1]; C. albicans (19 hours), concentrations 300, 200, 100, unit not given, N/A = no active concentration)	CFU for MFC at 200 ([2]; A. fumigatus (48 hours), concentration 200)	CFU for MFC at 300 ([2]; A. fumigatus (48 hours), concentration 300)	Lowest [Active] ([2]; A. fumigatus (48 hours), concentrations 300, 200, 100, unit not given, N/A = no active concentration)
CCN1CCC2C(C1)c1ccc(C)cc1C2c1ccc(C)cc1.Cl (stereo not shown) [Compound 4587-003]	50	75	25	25					
CCCOC(=O)c1ccc(C2c3cc(C)ccc3C3CN(CC)CCC32)cc1.Cl (racemic) [Compound 4587-062]	20	20	10	10					
CCN1CCC2C(C1)c1ccccc1C2c1ccccc1.Cl (racemic) [Compound 4587-037]					Cidal (Cidal = >98% killed)	300	Cidal (Cidal = >98% killed)	Static* (Static = well looked clear, but <98% killed)	200
